Measurements from ChEMBL document CHEMBL3244121, “Esters of 4-[3-[2-(trifluoromethyl)phenothiazin-10-yl]propyl]-1-piperazieneethanol and related compounds as long-acting antipsychotic agents. Synthesis of the 1-adamantoate, the first crystalline base” (1977).

System: Rattus norvegicus
Assay: Antipsychotic activity in albino rat assessed as duration of inhibition of conditioned avoidance behavior at 25 mg/kg administered intramuscularly
Assay type: functional
Conditions: route intramuscular

For `CCCCCC(=O)OCCN1CCN(CCCN2c3ccccc3Sc3ccc(C(F)(F)F)cc32)CC1.Cl`, the Time was 8 days.

With `CC(C)CCC(=O)OCCN1CCN(CCCN2c3ccccc3Sc3ccc(C(F)(F)F)cc32)CC1.Cl` the Time was 8 days.

Compound `CCCCCCCCCCCC(=O)OCCN1CCN(CCCN2c3ccccc3Sc3ccc(C(F)(F)F)cc32)CC1.Cl` has a Time of 28 days.

`CCCCCCCCCCCCCC(=O)OCCN1CCN(CCCN2c3ccccc3Sc3ccc(C(F)(F)F)cc32)CC1.Cl` showed a Time of 28 days.

Compound `CCCCCCCCCC(=O)OCCN1CCN(CCCN2c3ccccc3Sc3ccc(C(F)(F)F)cc32)CC1` [FLUPHENAZINE DECANOATE] has a Time of 12 days.

In the case of `CCCCCCC(=O)OCCN1CCN(CCCN2c3ccccc3Sc3ccc(C(F)(F)F)cc32)CC1` [FLUPHENAZINE ENANTHATE], the Time is reported as 28 days.
